We go through two molecules from patent US9861642B2, “Methods for diagnosing and treating asthma” (The Children's Research Institute, priority 2010, dated 2018).

Common to all, as to format: cell-based
In experiment [1] the test system is asthmatic primary differentiated human airway epithelia. In words: Flow cytometric cell cycle analysis (7-AAD) of BrdU+ cells from wounded asthmatic epithelia. As to conditions: Example 2, wounded asthmatic epithelia, 2 h pulses at -26, -2, +22, +46 h. As for the experimental part: (§1) On arrival, the in vitro epithelia were washed with phosphate buffered saline (PBS) and the basal medium was replaced with proprietary defined medium supplied by the manufacturer. Cells were equilibrated at 37° C. and 5% CO2 for 16 h followed by medium replacement with identical proprietary medium lacking glucocorticoids and epidermal growth factor (EGF). This condition was maintained for an additional 22 h. Upon completion (i.e. −26 h on the experimental timeline shown in FIG. 1, intermittent glucocorticoid exposures began: Dexamethasone (DEX) (20 nM) or PBS vehicle (VEH) was added to the apical and basolateral epithelial surfaces for 2 h. At −24 h, the medium was replaced with glucocorticoid- and EGF-free medium. This two-hour DEX/VEH pulse was repeated every 24 h (i.e. at −2, +22, and +46 h) thereafter until cell harvest at +48 h.
An in vitro epithelial injury model that allows for the study of epithelial repair processes in the lung was adapted for use in this study. Briefly, at 0 h on the timeline in FIG. 1, epithelia were scraped in two perpendicular lines with a p1000 pipette tip and placed in bromodeoxyuridine (BrdU)-containing (10 μM) medium. BrdU-containing medium was changed at +24 h following the DEX/VEH pulse mentioned previously. Epithelia were incubated at 37° C. and 5% CO2 until +48 h. In some experiments, wounds were imaged daily (i.e. 0, +24, +48 h) using a 16× phase contrast objective lens and wound area was measured in triplicate by a single operator blinded to the culture conditions using ImageJ Software (Rasband. ImageJ. Bethesda, Md., USA: U. S. National Institutes of Health; 1997-2009). Contrast was enhanced equally in all images to improve wound visualization.
Epithelia were washed once with PBS and harvested at +48 h (FIG. 1) for analysis by flow cytometry. A single cell suspension was achieved by exposure for 5 minutes with trypsin-ethylenediaminetetraacetic acid (EDTA) solution (#T3924; Sigma-Aldrich, St. Louis, Mo.) followed by filtration through a 40 μm strainer. Cells were simultaneously labeled with the following according to the manufacturers' protocols: 1) Carboxyfluorescein FLICA Apoptosis Poly-Caspase Detection Kit (Immunochemistry Technologies, LLC, Bloomington, Minn.) and 2) APC BrdU Flow Kit containing 7-AAD (amino-actinomycin-D) (BD Biosciences, San Jose, Calif.). Flow cytometry data were generated on a FACSCalibur™ System (BD Biosciences). Samples were gated to study 7-AAD content in BrdU^+FLICA^− cells. Data were analyzed by means of the cell cycle analysis feature of FlowJo 7.6 (Tree Star, Inc., Ashland, Oreg.) using a Watson (Pragmatic) model with equal coefficients of variation for the G1/G0 and G2/M peaks
Human fully-differentiated (air-liquid interface) normal (n=3) and asthmatic (n=3) primary airway epithelia, lacking inflammatory cells, were cultured in glucocorticoid-free medium beginning at −48 h. The cells were pulsed with mitotic cell cycle synchrony-inducing (i.e. dexamethasone, simvastatin) compounds or vehicle for 2 h at −26, −2, +22, and +46 h. Cultures were mechanically scrape-wounded at 0 h and thereafter exposed continuously to bromodeoxyuridine (BrdU) to identify mitotically active cells.

Experiment [2] relates to asthmatic primary differentiated human airway (bronchial) epithelia. The experiment can be described thus: BrdU flow cytometry of mitotically active cells after scrape-wounding, asthmatic epithelia. As to conditions: wounded asthmatic epithelia, 20 nM 2 h pulses every 24 h, harvest +48 h, mean±SEM. An excerpt: Normal (n=3) and asthmatic (n=6) primary differentiated human airway (i.e. bronchial) epithelia grown in 12-well plates on collagen-coated Transwell membrane inserts at an air-liquid interface were obtained commercially (#AIR-606 and #AIR-606-Asthma; MatTek Corporation, Ashland, Mass.). Donors underwent bronchoscopic brushing to acquire epithelial cells. Descriptive donor information provided by MatTek Corporation for the individuals from whom cells were obtained is shown in Table 1.
(§2) On arrival, the in vitro epithelia were washed with phosphate buffered saline (PBS) and the basal medium was replaced with proprietary defined medium supplied by the manufacturer. Cells were equilibrated at 37° C. and 5% CO2 for 16 h followed by medium replacement with identical proprietary medium lacking glucocorticoids and epidermal growth factor (EGF). This condition was maintained for an additional 22 h. […]
(§3) An in vitro epithelial injury model that allows for the study of epithelial repair processes in the lung was adapted for use in this study. […] In some experiments, wounds were imaged daily (i.e. 0, +24, +48 h) using a 16× phase contrast objective lens and wound area was measured in triplicate by a single operator blinded to the culture conditions using ImageJ Software (Rasband. ImageJ. Bethesda, Md., USA: U. S. National Institutes of Health; 1997-2009). […]

In experiment [3] the test system is asthmatic primary differentiated human airway epithelia. In words: Mechanical scrape-wound healing (wound area, ImageJ), asthmatic epithelia. To be noted: 20 nM 2 h pulses every 24 h. As for the experimental part: as §1, §3
Experiment [4] deals with normal primary differentiated human airway epithelia. In words: Mechanical scrape-wound healing (wound area, ImageJ), normal epithelia. As to conditions: 20 nM 2 h pulses every 24 h. The protocol:
as §1, §3

The test system is the same in experiment [5]. In words: Flow cytometric cell cycle analysis (7-AAD) of BrdU+ cells from wounded normal epithelia. As to conditions: with pulse DEX, +48 h. The protocol: as §2, §3
Epithelia were washed once with PBS and harvested at +48 h (FIG. 1) for analysis by flow cytometry. […] Data were analyzed by means of the cell cycle analysis feature of FlowJo 7.6 (Tree Star, Inc., Ashland, Oreg.) using a Watson (Pragmatic) model with equal coefficients of variation for the G1/G0 and G2/M peaks

Molecules are shown by their SMILES.

For the molecule `CCC(C)(C)C(=O)O[C@H]1C[C@@H](C)C=C2C=C[C@H](C)[C@H](CC[C@@H]3C[C@@H](O)CC(=O)O3)[C@H]21` [simvastatin], in experiment [1], the “BrdU+ cells in G1/G0” value was determined as 75±6%, the “BrdU+ cells in G2/M” value is 14±3% and the “BrdU+ cells in S” value was 11±4%.
Turning to `C[C@@H]1C[C@H]2[C@@H]3CCC4=CC(=O)C=C[C@]4(C)[C@@]3(F)[C@@H](O)C[C@]2(C)[C@@]1(O)C(=O)CO` [DEX, Dexamethasone], in experiment [1], the “BrdU+ cells in G1/G0” value came out at 72±5%, the “BrdU+ cells in G2/M” value was found to be 20±4% and the “BrdU+ cells in S” value amounted to 8±2%. In experiment [2], the “BrdU+ cells, % of total cells” value is 0.55±0.13%. Besides, the “wound area decrease from 0 to +48 h” value in experiment [3] stood at 75.7±9%. Also, the “wound area decrease from 0 to +48 h” value in experiment [4] came out at 86.8±5.4%. Moreover, the “BrdU+ cells in G1/G0” value in experiment [5] was above 70%.
